Test results from patent US20220280557A1, “Metabolic Reprogramming of Immune Cells for the Treatment or Prevention of Diseases and Disorders” (Arizona Board of Regents on behalf of Arizona State …, priority 2019, published 2022).

Tests used:
[1] = Encapsulation efficiency and loading (BCA assay, absorbance spectrophotometer); type: physicochemical; conditions: for % EE: Table 1, encapsulated in paKG particles; for % loading: Table 1, μg of drug per mg of particles
Description: In one embodiment, the metabolite-based polymer or polymeric particle has at least one of high loading and high encapsulation efficiency of the at least one therapeutic agent. Encapsulation efficiency is the percentage of drug that is successfully entrapped into a polymeric particle. In one embodiment, encapsulation efficiency (% EE) is calculated by (total drug added—free non-entrapped drug) divided by the total drug added. Loading capacity is the amount of drug loaded per unit weight of a polymeric particle, indicating the percentage of mass of the polymeric particle that is due to the encapsulated drug. In one embodiment, loading capacity (% LC) can be calculated by the amount of total entrapped drug divided by the total polymeric particle weight. In one embodiment, the polymeric particle has about 50% to about 100% encapsulation efficiency of the at least one therapeutic agent. In one embodiment, the polymeric particle has about 60% to about 100% encapsulation efficiency of the at least one therapeutic agent.
(§1) Another set of polymeric particles were generated using water-oil-water emulsion encapsulating bovine collagen type II (bc2—antigen) in the presence of PFK15 in the particles. Percentage encapsulation efficiency (EE) and percentage loading (μg of drug per mg of particles) for bc2, and PFK15 was determined using BCA assay, and absorbance spectrophotometer (plate reader), respectively (Table 1). Moreover, the release of PFK15 were studied using a plate reader, and it was determined that the polymeric particles released the drug in a sustained manner over a period of 30 days.

[2] = Release of PFK15 from polymeric particles (plate reader); type: physicochemical; conditions: from paKG polymeric particles
Description: as §1

BMDCs = assay: CD86 / MHCII expression in BMDCs by flow cytometry; type: cell-based
Description: Next, it was assessed if the changes in BMDC glycolytic rates can affect surface co-stimulatory CD86 expression in BMDCs, using flow cytometry. In this study, pro-inflammatory DCs were defined as the frequency of […].
Since DCs indeed phagocytose paKG-based MPs in vivo, it was hypothesized that the observed reduction in paw swelling in the CIA mice treated with paKG(PFK15+bc2) MPs, may be due to the paKG(PFK15+bc2) MPs modulating DC function (FIG. 8A). Therefore, first effect of paKG(PFK15+bc2) MPs on in vitro cultured BMDCs in the form of altered CD86, MHCII, IL-10, IL-12p70 and TNFα expression in CD11c^+ cells was tested.

[3] = system: glycolysis (ECAR) in BMDCs; assay: Extracellular flux assay (ECAR); type: cell-based
Description: Reduction in CD86 expression by inhibiting glycolysis in DCs can affect pro-inflammatory DC activation in the presence of lipopolysaccharide (LPS), which is used to mimic inflammation in vitro (FIG. 5A). Therefore, it was tested if PFK15 by itself can block glycolysis in bone marrow-derived DCs (BMDCs) in the presence or absence of LPS. To assess this, the extracellular acidification rate (ECAR) of BMDCs was determined by extracellular flux assays. BMDCs treated with LPS only and no treatment were used as controls.
To test this, extracellular flux assays were used, and pre-activated DCs with LPS and no treatment were used as controls.

[4] = with and without LPS, vs LPS and no treatment

Q: Which “% EE” value [1] does the source give for “bc2: bovine collagen type II (bc2) antigen” here?
A: 60%

Q: And the “% loading” value [1]?
A: 3 µg/mg

Q: What about the “percentage encapsulation efficiency of bc2” value ([1]; paKG(PFK15+bc2) MPs) of the same molecule?
A: 60 % (wt/wt)

Q: And the “percentage loading efficiency of bc2” value ([1]; per mg of MPs, paKG(PFK15+bc2) MPs)?
A: 3 µg/mg

Q: With O=C(C=Cc1ccc2ccccc2n1)c1ccncc1 [PFK15, 1-(4-pyridinyl)-3-(2-quinolinyl)-2-propen-1-one] as the molecule, how does the “period of sustained release of PFK15” value [2] read?
A: 30 days

Q: And the “% EE” value [1]?
A: 68%

Q: And the “% loading” value [1]?
A: 1.7 µg/mg

Q: And the “percentage encapsulation efficiency of PFK15 within paKG MPs” value ([1]; paKG(PFK15) MPs)?
A: 68±17%

Q: And the “percentage loading efficiency of PFK15” value ([1]; per mg of paKG MPs)?
A: 2 ± 1 µg/mg

Q: And the “frequency of pro-inflammatory BMDC populations” value (BMDCs; in the absence of LPS, vs no treatment)?
A: significantly decreased

Q: And the “decrease of frequency of CD86+MHCII+ of CD11c+ BMDCs” value (BMDCs; in the presence of LPS, vs LPS)?
A: approximately 8 fold

Q: What about the “CD86 expression in CD11c+ cells” value (BMDCs; [4]) of the same molecule?
A: reduced CD86 expression

Q: What about the “anti-inflammatory BMDC populations” value (BMDCs; [4]) of the same molecule?
A: did not significantly decrease

Q: And the “lowering of glycolysis (ECAR)” value ([3]; in the presence of LPS, vs LPS alone)?
A: 60%

Q: What about the “ECAR in BMDCs” value ([3]; without LPS, vs no treatment) of the same molecule?
A: did not significantly reduce ECAR
